Measurements: US20220218659A1, “PI3K/LYN-ACLY Signaling Inhibition” (Institute For Cancer Research d/b/a The Research Institute …, priority 2019, published 2022)
No end group written: not given here. *: point of attachment. Biotin = O=C1N[C@H]2[C@H](CS[C@H]2CCCCC(=O)*)N1

Legend:
[1] = tested on: Histone H3 acetylation (H3K9ac); test: Histone H3 (H3K9) acetylation by Western blot in HL-60 cells; type: cell-based; settings: 16 hours, 10% FBS in RPMI
Experimental: Therefore, to evaluate the link between PI3K/Lyn and ACLY-mediated pathways in AML, HL-60 AML cell line were also used, in addition to primary patient-derived AML cells. HL-60 cell line was from American Type Culture Collection (ATCC). It was decided to use this particular HL-60 cell line for consistency herein since HL-60 cells express the active NRAS oncoprotein, similarly like the patient-derived AML cells (FIG. 7 and FIG. 8). HL-60 AML cell line was grown in RPMI 1640 medium supplemented with 10% fetal bovine serum, 2 mM 1-glutamine and 1% penicillin-streptomycin and maintained at 37° C. and 5% CO2. Cells were treated with the Lyn inhibitor (100 nM-1000 nM Bafetinib) or PI3K inhibitors (500 nM-2.5 μM LY294002 or 100 nM-2.0 μM BKM120) or vehicle (0.1% DMSO) in the presence of 10% FBS in RPMI media for 16 hours for Acetyl CoA measurement, phospholipid and histone acetylation analysis.
HL-60 cell line was seeded at a concentration of 1×10^6/ml in 10 ml media onto 40 ml culture-flask and cultured for 16 hours in the presence of indicated concentration of LYN or PI3K inhibitors or DMSO (0.1% dimethyl sulfoxide). Cells were harvested and lysed in 1 ml of ice-cold Pierce IP lysis buffer (Pierce Inc.) in the presence of Proteinase and phosphatase inhibitor cocktail (Thermofisher) and sonicated for 20 seconds. Lysates were cleared by centrifugation at 12000 rpm in cold conditions on bench top centrifuge, and the supernatant was used for protein determination by BCA assay kit (Pierce Inc). Equivalent amounts of protein lysate were mixed with sodium dodecylsulfate (2×SDS) and boiled for 8 minutes. Samples were resolved by 4-12% gradient sodium dodecylsulfate-polyacrylamide gel electrophoresis (NOVEX; Invitrogen) and blotted onto nitrocellulose filters. Membranes were blocked for 1 hour in 0.1% Tween-20 and 5% bovine serum albumin. Primary antibodies for H3K9ac, histone H3, Lyn, ACLY and GAPDH were added to 5% BSA at concentrations provided by the vendor's instructions and incubated with membranes overnight at 4° C. before removing by washing. […]

Acetyl-CoA = Acetyl-CoA measurement in HL-60 cells; type: cell-based; settings: 16 hours
Experimental: HL-60 cells were cultured as above, treated with Bafetinib (500 nM), PI3K inhibitors (1 μM) for 16 hours. After treatment, cells were washed with medium and harvested for acetyl-CoA extraction from 5×10^6 cells per condition in triplicate, acetyl-CoA levels were measured using Pico-Probe Acetyl-CoA Fluorometric Assay kit (BioVision, Milpitas, Calif.) following the manufacturer's instructions.

ACLY binding to PIP2 = test: Phospho-ACLY bound to PIP2 (PIP2 immunoprecipitation and western blotting) in transfected HEK293T cells; type: cell-based, human; settings: ACLY-HA with active SRC kinase, 2 μM, 15 hours
PI/PIP/PIP2 = test: Lipidomic analysis of PI, PIP and PIP2 in HL-60 cells; type: cell-based; settings: 16 hours, 10% FBS in RPMI
Experimental: Phosphoinositides from HL60 cells treated with PI3K and Lyn inhibitors were compared with those from control cells (0.1% DMSO in culture medium). HL60 cells were treated with PI3K inhibitors LY294002, BKM120 or the Lyn inhibitor Bafetinib for 16 hours followed by TCA precipitation and freezing at −80° C. TCA precipitates were spiked with 20 ng of two internal standards (PIP 37:4; PIP2 37:4) and subjected to lipid extraction as described below and analyzed via LC/MS/MS. TMS-diazomethane derivatized phospholipids including phosphatidyl inositol (PI), phosphatidylinositol phosphate (PIP) and phosphatidylinositol bisphosphate (PIP2) values were measured using UPLC/MS/MS MRM Mass Spectrometry. […] Phosphatidylinositol trisphosphate (PIP3) was also measured but levels were too low in these cells to be analyzed. The endogenous PIP3 is several orders of magnitude less abundant than PIP2 in cells. It is well established that the basal PIP3 level is often undetectable in cells due to its low quantity and short halflife. […]
UPLC/MS: Dried, methylated cell extracts were suspended in 100 μl 100% methanol (LC-MS Optima grade, Fisher) prior to chromatographic separation and MS/MS. […] The effluent was monitored by a Waters XEVO TQ-S MS/MS in multiple reaction monitoring (MRM) in positive ion mode. […]

HL-60 AML cells = test: MTT assay, growth of HL-60 AML cells; type: cell-based; settings: within 72 hours
Experimental: HL-60 cells were treated with various concentrations of Bafetinib (Lyn kinase), BKM120 (PI3K) and BMS 303141 (ACLY) inhibitors in the presence of 10% RPMI media for 72 hours. The growth-inhibitory effect was examined using a […] assay (MTT; Sigma-Aldrich) as per the instructions of the manufactured kit. The experiment was performed in triplicate.

[2] = ACLY peptide binding on PIP specificity plates; settings: PIP specificity plate, 20 pmols phosphoinositide per well, peptide 1.0 μg/ml
Experimental: ACLY peptides: Based on PIP2 binding motif analysis on ACLY using full length protein sequence, two PIP2 binding domains were predicted. The ACLY peptide-1 in the ATP-grasp domain sequence (peptide-1: […]; SEQ ID NO:15) and the ACLY peptide-2, in the CoA-binding domain sequence (peptide-2: […]; SEQ ID NO:5). N-terminally biotinylated peptides were synthesized (Genscript, Inc). ACLY-PIP specificity binding assay was performed using the N-terminally biotinylated peptides at 1.0 μg/ml concentration in 1% goat serum in Tris buffer saline (TB S) and the Cova PIP Specificity plate H-6300 (Echelon Biosciences) according to manufactures instructions. In brief, ACLY peptide-1 and peptide-2 at final concentration of 1.0 μg/ml in 100 μl volume were incubated for overnight at 4° C. After three washes with TBST buffer, the wells were incubated with 100 μl of HRP-conjugated Biotin antibody, followed by three washes. The bound peptides were detected with Super-Signal ELISA-Pico chemiluminescent substrate kit from ThermoFisher and reading the absorbance at 450 nm for 3-30 minutes.

Nc1cc(C(F)(F)F)c(-c2cc(N3CCOCC3)nc(N3CCOCC3)n2)cn1 [BKM120, Buparlisib]
Histone H3 acetylation blocked (densitometric analysis) [1]: 97% | synthesis of Acetyl-CoA (Acetyl-CoA): significantly prevented | phospho-ACLY bound to PIP2 versus DMSO (ACLY binding to PIP2): significant difference | levels of total PI/PIP/PIP2 compared to DMSO control (PI/PIP/PIP2): overall decrease

COc1ccc(-c2ccccc2)cc1NS(=O)(=O)c1cc(Cl)cc(Cl)c1O [BMS303141]
IC50 (HL-60 AML cells): 10 to 20 µM

Cc1ccc(NC(=O)c2ccc(CN3CC[C@H](N(C)C)C3)c(C(F)(F)F)c2)cc1Nc1nccc(-c2cncnc2)n1 [Bafetinib]
Histone H3 acetylation blocked (densitometric analysis) [1]: 90%

O=c1cc(N2CCOCC2)oc2c(-c3ccccc3)cccc12 [LY294002]
Histone H3 acetylation blocked (densitometric analysis) [1]: 60%

ALTRKLIKKADQKGV (Biotin-ALTRKLIKKADQKGV) [ACLY peptide-2]
binding to PI(4,5)P2 [2]: binds to PI(4,5)P2
